The first assay deals with T1, Estrogen receptor (Homo sapiens, UniProt P03372).
T1 sequence (P03372 whole entry): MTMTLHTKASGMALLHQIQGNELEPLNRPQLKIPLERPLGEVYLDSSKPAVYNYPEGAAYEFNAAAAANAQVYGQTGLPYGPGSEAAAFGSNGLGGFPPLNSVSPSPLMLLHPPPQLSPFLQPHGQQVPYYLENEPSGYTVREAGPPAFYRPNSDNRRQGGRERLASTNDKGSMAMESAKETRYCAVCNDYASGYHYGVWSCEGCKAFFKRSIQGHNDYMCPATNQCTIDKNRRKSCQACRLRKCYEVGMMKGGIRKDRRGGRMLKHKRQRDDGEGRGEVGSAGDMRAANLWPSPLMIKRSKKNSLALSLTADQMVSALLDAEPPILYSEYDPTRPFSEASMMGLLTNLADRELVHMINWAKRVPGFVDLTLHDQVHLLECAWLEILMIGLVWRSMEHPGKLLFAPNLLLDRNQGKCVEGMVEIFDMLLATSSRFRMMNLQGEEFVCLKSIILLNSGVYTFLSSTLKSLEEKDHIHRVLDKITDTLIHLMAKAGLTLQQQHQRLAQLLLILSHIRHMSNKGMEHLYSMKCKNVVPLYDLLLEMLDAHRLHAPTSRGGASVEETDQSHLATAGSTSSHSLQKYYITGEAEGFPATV
A word on the Ki: it is the dissociation constant of the complex between target and ligand, obtained from inhibition or displacement. The low end stands for higher affinity, the high end for lower affinity. In turn, `CCCCCCCCc1cc2cc(O)ccc2c(Oc2ccc(/C=C/C(=O)O)cc2)c1-c1ccccc1` showed an inhibitory constant (Ki) of 55 nM.

`CC(C)Cc1cc2cc(O)ccc2c(Oc2ccc(/C=C/C(=O)O)cc2)c1-c1ccccc1` had a Ki of 28 nM.

The molecule `CCCCCc1cc2cc(O)ccc2c(Oc2ccc(/C=C/C(=O)O)cc2)c1-c1ccccc1` returned a Ki of 2 nM.

Consider `O=C(O)/C=C/c1ccc(Oc2c(-c3ccccc3)c(C3CC3)cc3cc(O)ccc23)cc1`, for which affinity was put at a Ki of 60 nM.

For `CCCCc1cc2cc(O)ccc2c(Oc2ccc(/C=C/C(=O)O)cc2)c1-c1ccccc1`, affinity was put at a Ki of 4 nM.

With `CCCCc1cc2ccccc2c(Oc2ccc(/C=C/C(=O)O)cc2)c1-c1ccccc1`, affinity was put at a Ki of 977 nM.

In the case of `CCCCc1cc2ccccc2c(Oc2ccc(/C=C/C(=O)O)cc2)c1-c1ccc(OC)cc1`, the affinity, expressed as Ki, was 158 nM.

In the case of `CCCCc1cc2ccccc2c(Oc2ccc(/C=C/C(=O)O)cc2)c1-c1ccc(O)cc1`, the Ki is 52 nM.

On to `CCCCc1cc2ccccc2c(Oc2ccc(/C=C/C(=O)O)cc2)c1-c1ccc(F)cc1`, for which the Ki was found to be 724 nM.

As for `COCc1cc2ccccc2c(Oc2ccc(/C=C/C(=O)O)cc2)c1-c1ccccc1`, the Ki was determined as 692 nM.

The target in the next assay is Estrogen receptor beta (Homo sapiens, UniProt Q92731).
Chain of Estrogen receptor beta (Q92731 whole entry): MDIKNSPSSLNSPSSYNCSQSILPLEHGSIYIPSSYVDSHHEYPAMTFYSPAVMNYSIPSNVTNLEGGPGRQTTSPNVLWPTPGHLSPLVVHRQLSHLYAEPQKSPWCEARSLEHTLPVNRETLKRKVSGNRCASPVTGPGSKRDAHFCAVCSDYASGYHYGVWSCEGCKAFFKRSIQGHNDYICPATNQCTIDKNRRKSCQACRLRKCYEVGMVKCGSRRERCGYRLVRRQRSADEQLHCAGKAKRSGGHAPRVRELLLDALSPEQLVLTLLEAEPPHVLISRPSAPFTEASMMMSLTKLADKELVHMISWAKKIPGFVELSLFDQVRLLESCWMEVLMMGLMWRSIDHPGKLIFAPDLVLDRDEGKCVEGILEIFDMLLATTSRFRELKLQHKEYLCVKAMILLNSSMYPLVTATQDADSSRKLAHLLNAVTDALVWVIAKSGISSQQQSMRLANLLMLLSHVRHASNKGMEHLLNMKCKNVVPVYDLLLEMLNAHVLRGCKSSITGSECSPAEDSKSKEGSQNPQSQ
For the molecule `CCCCCCCCc1cc2cc(O)ccc2c(Oc2ccc(/C=C/C(=O)O)cc2)c1-c1ccccc1`, the Ki is 30 nM.

In turn, `CC(C)Cc1cc2cc(O)ccc2c(Oc2ccc(/C=C/C(=O)O)cc2)c1-c1ccccc1` showed a Ki of 22 nM.

As for `CCCCCc1cc2cc(O)ccc2c(Oc2ccc(/C=C/C(=O)O)cc2)c1-c1ccccc1`, the Ki stood at 3 nM.

With `O=C(O)/C=C/c1ccc(Oc2c(-c3ccccc3)c(C3CC3)cc3cc(O)ccc23)cc1`, the Ki was 16 nM.

The molecule `CCCCc1cc2cc(O)ccc2c(Oc2ccc(/C=C/C(=O)O)cc2)c1-c1ccccc1` registered a Ki of 4 nM.

As to `CCCCc1cc2ccccc2c(Oc2ccc(/C=C/C(=O)O)cc2)c1-c1ccccc1`, the affinity, expressed as Ki, was 170 nM.

`CCCCc1cc2ccccc2c(Oc2ccc(/C=C/C(=O)O)cc2)c1-c1ccc(OC)cc1` showed a Ki of 162 nM.

In turn, `CCCCc1cc2ccccc2c(Oc2ccc(/C=C/C(=O)O)cc2)c1-c1ccc(O)cc1` registered a Ki of 48 nM.

On to `CCCCc1cc2ccccc2c(Oc2ccc(/C=C/C(=O)O)cc2)c1-c1ccc(F)cc1`, for which the affinity, expressed as Ki, was 110 nM.

`COCc1cc2ccccc2c(Oc2ccc(/C=C/C(=O)O)cc2)c1-c1ccccc1` showed a Ki of 501 nM.

The values above are taken from ChEMBL document CHEMBL1144155, “Synthesis of 3-alkyl naphthalenes as novel estrogen receptor ligands” (Bioorg Med Chem Lett, 2008).
